Measurements reported in patent US10405547B2, “Substituted cyclic amides as herbicides” (FMC Corporation, priority 2015, dated 2019).

Experiments:
Type in all cases: in vivo
[1] = system: barnyardgrass (Echinochloa crus-galli); assay: Test A preemergence, barnyardgrass; conditions: 0 to 100 scale (0 no effect, 100 complete control)
Procedure, shortened: (§1)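 Visual injury scores (0 no effect to 100 complete control) taken about 10 days after treatment, relative to untreated plants. Treatments were directed soil spray at planting for preemergence, or foliar application to one- to two-leaf plants (2-10 cm) for postemergence, with surfactant-containing formulations in loam–sand pots.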

[2] = system: kochia (Kochia scoparia); assay: Test A preemergence, kochia; conditions: 0 to 100 scale (0 no effect, 100 complete control)
Procedure, shortened: as §1

[3] = system: ragweed (common ragweed, Ambrosia elatior); assay: Test A preemergence, ragweed; conditions: 0 to 100 scale (0 no effect, 100 complete control)
Procedure, shortened: as §1

[4] = system: ryegrass, Italian (Lolium multiflorum); assay: Test A preemergence, Italian ryegrass; conditions: 0 to 100 scale (0 no effect, 100 complete control)
Procedure, shortened: as §1

[5] = system: foxtail, giant (Setaria faberii); assay: Test A preemergence, giant foxtail; conditions: 0 to 100 scale (0 no effect, 100 complete control)
Procedure, shortened: as §1

[6] = system: pigweed (Amaranthus retroflexus); assay: Test A preemergence, pigweed; conditions: 0 to 100 scale (0 no effect, 100 complete control)
Procedure, shortened: as §1

[7] = system: barnyardgrass (Echinochloa crus-galli); assay: Test A postemergence, barnyardgrass; conditions: visual injury, 0 to 100 scale (0 no effect, 100 complete control), approximately 10 days
Procedure, shortened: as §1

[8] = system: kochia (Kochia scoparia); assay: Test A postemergence, kochia; conditions: visual injury, 0 to 100 scale (0 no effect, 100 complete control), approximately 10 days
Procedure, shortened: as §1

[9] = system: ragweed (common ragweed, Ambrosia elatior); assay: Test A postemergence, ragweed; conditions: visual injury, 0 to 100 scale (0 no effect, 100 complete control), approximately 10 days
Procedure, shortened: as §1

[10] = system: ryegrass, Italian (Lolium multiflorum); assay: Test A postemergence, Italian ryegrass; conditions: visual injury, 0 to 100 scale (0 no effect, 100 complete control), approximately 10 days
Procedure, shortened: as §1

[11] = system: foxtail, giant (Setaria faberii); assay: Test A postemergence, giant foxtail; conditions: visual injury, 0 to 100 scale (0 no effect, 100 complete control), approximately 10 days
Procedure, shortened: as §1

[12] = system: pigweed (Amaranthus retroflexus); assay: Test A postemergence, pigweed; conditions: visual injury, 0 to 100 scale (0 no effect, 100 complete control), approximately 10 days
Procedure, shortened: as §1

[13] = system: blackgrass (Alopecurus myosuroides); assay: Test A postemergence, blackgrass; conditions: visual injury, 0 to 100 scale (0 no effect, 100 complete control), approximately 10 days
Procedure, shortened: as §1

[14] = system: galium (catchweed bedstraw, Galium aparine); assay: Test A postemergence, galium; conditions: visual injury, 0 to 100 scale (0 no effect, 100 complete control), approximately 10 days
Procedure, shortened: as §1

[15] = system: wheat (Triticum aestivum); assay: Test A postemergence, wheat; conditions: visual injury, 0 to 100 scale (0 no effect, 100 complete control), approximately 10 days
Procedure, shortened: as §1

[16] = system: corn (Zea mays); assay: Test A postemergence, corn; conditions: visual injury, 0 to 100 scale (0 no effect, 100 complete control), approximately 10 days
Procedure, shortened: as §1

[17] = system: rice (Oryza sativa); assay: Test B flooded paddy test, rice; conditions: 250 g ai/ha, applied to paddy water, visual rating after 13 to 15 days, scale 0 (no effect) to 100 (complete control)
Description: (§2) At time of treatment, test pots were flooded to 3 cm above the soil surface, treated by application of test compounds directly to the paddy water, and then maintained at that water depth for the duration of the test. Treated plants and controls were maintained in a greenhouse for 13 to 15 days, after which time all species were compared to controls and visually evaluated. […] A dash (-) response means no test result.

[18] = system: sedge, umbrella (small-flower umbrella sedge, Cyperus difformis); assay: Test B flooded paddy test, umbrella sedge; conditions: 250 g ai/ha, applied to paddy water, visual rating after 13 to 15 days, scale 0 (no effect) to 100 (complete control)
Description: as §2

[19] = system: ducksalad (Heteranthera limosa); assay: Test B flooded paddy test, ducksalad; conditions: 250 g ai/ha, applied to paddy water, visual rating after 13 to 15 days, scale 0 (no effect) to 100 (complete control)
Description: as §2

[20] = system: barnyardgrass (Echinochloa crus-galli); assay: Test B flooded paddy test, barnyardgrass; conditions: 250 g ai/ha, applied to paddy water, visual rating after 13 to 15 days, scale 0 (no effect) to 100 (complete control)
Description: as §2

SMILES	Plant response rating, Barnyardgrass ([1]; 125 g ai/ha)	Plant response rating, Barnyardgrass ([1]; 500 g ai/ha)	Plant response rating, Kochia ([2]; 125 g ai/ha)	Plant response rating, Kochia ([2]; 500 g ai/ha)	Plant response rating, Ragweed ([3]; 125 g ai/ha)	Plant response rating, Ragweed ([3]; 500 g ai/ha)	Plant response rating, Ryegrass, Italian ([4]; 125 g ai/ha)	Plant response rating, Ryegrass, Italian ([4]; 500 g ai/ha)	Plant response rating, Foxtail, Giant ([5]; 125 g ai/ha)	Plant response rating, Foxtail, Giant ([5]; 500 g ai/ha)	Plant response rating, Pigweed ([6]; 125 g ai/ha)	Plant response rating, Pigweed ([6]; 500 g ai/ha)	Plant response rating, Barnyardgrass ([7]; 125 g ai/ha)	Plant response rating, Barnyardgrass ([7]; 500 g ai/ha)	Plant response rating, Ragweed ([9]; 125 g ai/ha)	Plant response rating, Ragweed ([9]; 500 g ai/ha)	Plant response rating, Ryegrass, Italian ([10]; 125 g ai/ha)	Plant response rating, Ryegrass, Italian ([10]; 500 g ai/ha)	Plant response rating, Foxtail, Giant ([11]; 125 g ai/ha)	Plant response rating, Foxtail, Giant ([11]; 500 g ai/ha)	other results
O=C1NCC(c2cccc(OCc3ccco3)c2)C1C(=O)Nc1ccccc1Cl (stereo not drawn) [Compound 1]	0	0	0	0	0	0	0	0	0	0	0	0	0	0	0	30	0	0	0	0	Plant response rating, Kochia ([8]; 125 g ai/ha): 0; Plant response rating, Kochia ([8]; 500 g ai/ha): 0; Plant response rating, Pigweed ([12]; 125 g ai/ha): 0; Plant response rating, Pigweed ([12]; 500 g ai/ha): 0; Plant response rating, Blackgrass ([13]; 125 g ai/ha): 0; Plant response rating, Blackgrass ([13]; 500 g ai/ha): 0; Plant response rating, Galium ([14]; 125 g ai/ha): 0; Plant response rating, Galium ([14]; 500 g ai/ha): 0; Plant response rating, Wheat ([15]; 125 g ai/ha): 0; Plant response rating, Wheat ([15]; 500 g ai/ha): 0; Plant response rating, Corn ([16]; 125 g ai/ha): 0; Plant response rating, Corn ([16]; 500 g ai/ha): 0; Plant response rating, Rice (Flood) [17]: 0; Plant response rating, Sedge, Umbrella (Flood) [18]: 30; Plant response rating, Ducksalad (Flood) [19]: 65; Plant response rating, Barnyardgrass (Flood) [20]: 0
O=C1NCC(c2cccc(OC(F)(F)C(F)OC(F)(F)F)c2)C1C(=O)Nc1ccccc1F (stereo not drawn) [Compound 40]	50	90	0	90	0	20	0	0	90	90	0	0	50	40	0	0	0	0	40	60	Plant response rating, Kochia ([8]; 125 g ai/ha): 0; Plant response rating, Kochia ([8]; 500 g ai/ha): 0; Plant response rating, Pigweed ([12]; 125 g ai/ha): 0; Plant response rating, Pigweed ([12]; 500 g ai/ha): 0; Plant response rating, Blackgrass ([13]; 125 g ai/ha): 0; Plant response rating, Blackgrass ([13]; 500 g ai/ha): 30; Plant response rating, Galium ([14]; 125 g ai/ha): 40; Plant response rating, Galium ([14]; 500 g ai/ha): 40; Plant response rating, Wheat ([15]; 125 g ai/ha): 0; Plant response rating, Wheat ([15]; 500 g ai/ha): 20; Plant response rating, Corn ([16]; 125 g ai/ha): 0; Plant response rating, Corn ([16]; 500 g ai/ha): 0; Plant response rating, Rice (Flood) [17]: 0; Plant response rating, Sedge, Umbrella (Flood) [18]: 0; Plant response rating, Ducksalad (Flood) [19]: 70; Plant response rating, Barnyardgrass (Flood) [20]: 20
O=C1NCC(c2cccc(Oc3ccc(C(F)(F)F)cn3)c2)C1C(=O)Nc1ccccc1F (single isomer, unassigned) [Compound 62]	90	90	30	60	0	50	0	20	90	90	30	50	70	90	0	40	0	30	80	90	Plant response rating, Pigweed ([12]; 125 g ai/ha): 0; Plant response rating, Pigweed ([12]; 500 g ai/ha): 30; Plant response rating, Blackgrass ([13]; 125 g ai/ha): 0; Plant response rating, Blackgrass ([13]; 500 g ai/ha): 30; Plant response rating, Galium ([14]; 125 g ai/ha): 30; Plant response rating, Galium ([14]; 500 g ai/ha): 60; Plant response rating, Wheat ([15]; 125 g ai/ha): 0; Plant response rating, Wheat ([15]; 500 g ai/ha): 30; Plant response rating, Corn ([16]; 125 g ai/ha): 30; Plant response rating, Corn ([16]; 500 g ai/ha): 30; Plant response rating, Rice (Flood) [17]: 20; Plant response rating, Sedge, Umbrella (Flood) [18]: 0; Plant response rating, Ducksalad (Flood) [19]: 100; Plant response rating, Barnyardgrass (Flood) [20]: 40
CN1CC(c2cccc(Oc3ccc(F)cn3)c2)C(C(=O)Nc2cccc(F)c2F)C1=O (single isomer, unassigned) [Compound 61]	90	90	60	80	30	60	80	90	90	90	70	90	70	80	40	50	70	70	90	90	Plant response rating, Pigweed ([12]; 125 g ai/ha): 40; Plant response rating, Pigweed ([12]; 500 g ai/ha): 70; Plant response rating, Blackgrass ([13]; 125 g ai/ha): 40; Plant response rating, Blackgrass ([13]; 500 g ai/ha): 50; Plant response rating, Galium ([14]; 125 g ai/ha): 60; Plant response rating, Galium ([14]; 500 g ai/ha): 70; Plant response rating, Wheat ([15]; 125 g ai/ha): 50; Plant response rating, Wheat ([15]; 500 g ai/ha): 80; Plant response rating, Corn ([16]; 125 g ai/ha): 70; Plant response rating, Corn ([16]; 500 g ai/ha): 90; Plant response rating, Rice (Flood) [17]: 0; Plant response rating, Sedge, Umbrella (Flood) [18]: 0; Plant response rating, Ducksalad (Flood) [19]: 100; Plant response rating, Barnyardgrass (Flood) [20]: 40
CN1CC(c2cccc(Oc3ccc(F)cn3)c2)C(C(=O)Nc2ccccc2F)C1=O (single isomer, unassigned) [Compound 60]	90	90	70	80	40	50	20	70	90	90	60	50	70	90	0	40	30	50	80	90	Plant response rating, Pigweed ([12]; 125 g ai/ha): 0; Plant response rating, Pigweed ([12]; 500 g ai/ha): 40; Plant response rating, Blackgrass ([13]; 125 g ai/ha): 0; Plant response rating, Blackgrass ([13]; 500 g ai/ha): 30; Plant response rating, Galium ([14]; 125 g ai/ha): 30; Plant response rating, Galium ([14]; 500 g ai/ha): 60; Plant response rating, Wheat ([15]; 125 g ai/ha): 0; Plant response rating, Wheat ([15]; 500 g ai/ha): 70; Plant response rating, Corn ([16]; 125 g ai/ha): 30; Plant response rating, Corn ([16]; 500 g ai/ha): 50; Plant response rating, Rice (Flood) [17]: 0; Plant response rating, Sedge, Umbrella (Flood) [18]: 0; Plant response rating, Ducksalad (Flood) [19]: 100; Plant response rating, Barnyardgrass (Flood) [20]: 65
